# Like-named read-outs stand apart in the source and are kept apart here.
# Assays:
# in vitro = conditions: human, A549 cells
# Method: The cell lines A549 (Human Lung Adenocarcinoma Epithelial Cell Line) and HepG2 (Human Hepatocellular Carcinoma Cell Line) were purchased from ATCC. A549 cells were maintained in F-12K medium (Gibco) containing 10% foetal bovine serum (Life Technologies) and 1% penicillin/streptomycin (Life Technologies) and HepG2 cells were maintained in Dulbecco's modified eagles medium (Gibco) containing 10% foetal bovine serum (Life Technologies), penicillin/streptomycin (Life Technologies) and 1% 0.01 mg/ml human transferrin (Sigma). Both were incubated at 37° C. with 5% CO2 until cells reached >80% confluence before splitting or experimental use.
# Before exposure to peptides, the plate was incubated at 37° C. with 5% CO2 overnight to allow cells adhere. […] Medium was removed from the plate containing cells and peptide dilutions were transferred to cells and incubated for a further 3 h at 37° C. with 5% CO2. Cytotoxicity was determined by LIVE/DEAD® Viability/Cytotoxicity kit (Invitrogen Life Technologies), a working solution of 2 μM calcein AM and 4 μM EthD-1 and in conjunction Alamar Blue at a final concentration of 10% was added to the wells. Cells without peptides were the negative control and 1% DMSO was the positive control. Cells were incubated for 3 h again at 37° C. with 5% CO2.
# C. albicans SC5314 [1] = format: cell-based
# Method: 1×RPMI-1640 Buffered with Citrate Phosphate Buffer
# Citrate phosphate buffer was prepared by mixing 0.1 M citric acid and 0.2 M dibasic sodium phosphate dodecahydrate in the proportions indicated in the Table 2 and the volume adjusted to 90 ml with dH2O.
# pH buffered medium was prepared by dissolving 1.04 g RPMI-1640 premix powder in 10 ml citrate phosphate buffer. The volume was then adjusted to 40 ml with dH2O and the pH adjusted by addition of the acid or base. The volume was adjusted to 50 ml with dH2O. The medium was then filter sterilized by vacuum filtration through a 0.2 μm filter and stored at 4° C. and kept for up to 2 weeks.
# The pH of RPMI-1640 was altered, using citrate phosphate buffer, to reflect the more acidic pH environment in the oral cavity. NP319 and NP377 were active against C. albicans SC5314 from pH 5.5-7.0 (Table 2). For all AMPs tested the optimum pH for activity was pH 5.5. NP377 maintained activity at 2 μg/ml from pH 5.5-7 with reduced activity at pH 5.
# C. albicans SC5314 [2] = assay: MIC in the presence of 10% sterile filtered human saliva; format: cell-based
# Method: AMPs of the same sequence length were tested versus C. albicans SC5314 in the presence of 10% (v/v) filtered human saliva at pH 7.0. Positive control is 1×RPMI-1640+cells, no peptide. Data is expressed as percentage of the positive growth controls. Data is the mean±standard error of the mean. (n=3)
# Determination of Minimum Inhibitory Concentration (MIC) in Presence of Sterile Filtered Saliva
# To test if saliva protease could result in a reduction in AMP antifungal activity against C. albicans, antifungal susceptibility testing was conducted in the presence of 10% (v/v) sterile filtered human saliva.
# [3] = system: human red blood cells (hRBC); assay: Haemolysis of human red blood cells; conditions: at 2500 μg/ml, 3 h
# Method: Peptides were tested for their haemolytic activity against human red blood cells (hRBC). Fresh hRBCs collected in BD Vacutainer® tubes with EDTA were rinsed 3 times with PBS (pH 7.4) by centrifugation for 10 min at 800 g and resuspended, 1 in 10 diluted with PBS. […] Release of haemoglobin was then calculated by transferring supernatant to a flat bottomed 96-well plate and measuring absorbance at 578 nm. hRBCs with no peptides added and H2O provided the controls.
structure (smiles),measurement,setting,value
CCCCCCCCCCCCCCCC(=O)N[C@@H](CCCNC(=N)N)C(=O)N[C@@H](CCCNC(=N)N)C(=O)N[C@@H](CCCNC(=N)N)C(=O)N[C@@H](CCCNC(=N)N)C(=O)N[C@@H](CCCNC(=N)N)C(=O)N[C@@H](CCCNC(=N)N)C(=O)N[C@@H](CCCNC(=N)N)C(=O)N[C@@H](CCCNC(=N)N)C(=O)N[C@@H](CCCNC(=N)N)C(=O)N[C@@H](CCCNC(=N)N)C(=O)N[C@@H](CCCNC(=N)N)C(=O)N[C@@H](CCCNC(=N)N)C(=O)O [C16-(Rx12)],CC50 at 3 h,in vitro,30 µg/mL
"N=C(N)NCCC[C@@H](N)C(=O)N[C@H](CCCNC(=N)N)C(=O)N[C@H](CCCNC(=N)N)C(=O)N[C@H](CCCNC(=N)N)C(=O)N[C@H](CCCNC(=N)N)C(=O)N[C@H](CCCNC(=N)N)C(=O)N[C@H](CCCNC(=N)N)C(=O)N[C@H](CCCNC(=N)N)C(=O)N[C@H](CCCNC(=N)N)C(=O)N[C@H](CCCNC(=N)N)C(=O)N[C@H](CCCNC(=N)N)C(=O)N[C@H](CCCNC(=N)N)C(=O)N[C@H](CCCNC(=N)N)C(=O)N[C@H](Cc1c[nH]cn1)C(=O)N[C@H](Cc1c[nH]cn1)C(N)=O [NP377, dRdRdRdRdRdRdRdRdRdRdRdRdRdHdH-CONH]",concentration at which activity was maintained,C. albicans SC5314 [1]; from pH 5.5-7,2 µg/mL
same,MIC50,C. albicans SC5314 [1]; pH 4.5,32 µg/mL
same,MIC100,C. albicans SC5314 [1]; pH 4.5,>64 µg/mL
same,MIC50,C. albicans SC5314 [1]; pH 5,4 µg/mL
same,MIC100,C. albicans SC5314 [1]; pH 5,8 µg/mL
same,MIC50,C. albicans SC5314 [1]; pH 5.5,1 µg/mL
same,MIC100,C. albicans SC5314 [1]; pH 5.5,2 µg/mL
same,MIC50,C. albicans SC5314 [1]; pH 6,2 µg/mL
same,MIC100,C. albicans SC5314 [1]; pH 6,2 µg/mL
same,MIC50,C. albicans SC5314 [1]; pH 6.5,2 µg/mL
same,MIC100,C. albicans SC5314 [1]; pH 6.5,2 µg/mL
same,MIC50,C. albicans SC5314 [1]; pH 7,2 µg/mL
same,MIC100,C. albicans SC5314 [1]; pH 7,4 µg/mL
same,MIC100,"C. albicans SC5314 [2]; 10% (v/v) sterile filtered human saliva, pH 7.0",2 µg/mL
same,antifungal activity in the presence of filtered human saliva,C. albicans SC5314 [2]; filtered human saliva,retain antifungal activity
N=C(N)NCCC[C@H](NC(=O)[C@H](CCCNC(=N)N)NC(=O)[C@H](CCCNC(=N)N)NC(=O)[C@H](CCCNC(=N)N)NC(=O)[C@H](CCCNC(=N)N)NC(=O)[C@H](CCCNC(=N)N)NC(=O)[C@H](CCCNC(=N)N)NC(=O)[C@H](CCCNC(=N)N)NC(=O)[C@H](CCCNC(=N)N)NC(=O)[C@H](CCCNC(=N)N)NC(=O)[C@H](CCCNC(=N)N)NC(=O)[C@H](CCCNC(=N)N)NC(=O)[C@H](CCCNC(=N)N)NC(=O)[C@@H](N)CCCNC(=N)N)C(=O)O [Rx14],CC50 at 3 h,in vitro,> 2500 µg/mL
same,Haemolysis RBCs % at 2500,[3],0%

# — patent US20170107254A1, “Modified Antimicrobial Peptides” (priority 2014, published 2017)
